Reference: patent publication US12559529B2, “NPY2 receptor agonists” (Boehringer Ingelheim International GmbH, priority 2019, dated 2026)

What was measured:
human NPY1 receptor = target: T1, human NPY1 receptor (Homo sapiens, UniProt P25929); assay: HTRF cAMP Gi assay, hY1R; format: cell-based; conditions: Table 4; CHO-K1 cells
T1 construct: expressed in transfected cells; host or cells: CHO-K1
T1 sequence (P25929 1-384): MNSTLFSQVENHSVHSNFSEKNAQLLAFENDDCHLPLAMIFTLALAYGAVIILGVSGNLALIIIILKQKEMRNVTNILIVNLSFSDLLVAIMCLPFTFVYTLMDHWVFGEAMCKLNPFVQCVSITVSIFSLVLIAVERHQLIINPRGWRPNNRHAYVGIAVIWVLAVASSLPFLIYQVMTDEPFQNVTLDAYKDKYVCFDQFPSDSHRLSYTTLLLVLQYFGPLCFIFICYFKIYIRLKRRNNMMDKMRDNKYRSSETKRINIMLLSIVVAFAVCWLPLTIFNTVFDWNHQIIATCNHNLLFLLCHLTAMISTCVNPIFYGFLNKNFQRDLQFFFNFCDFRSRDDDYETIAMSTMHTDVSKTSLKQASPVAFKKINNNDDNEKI
Method: Briefly, the production of intracellular cAMP will generate a competition between unlabeled cAMP and exogenously added d2-cAMP for anti-cAMP antibodies conjugated to cryptate. CHO-K1 cells stably expressing the human NPY1, NPY2, NPY4 and NPY5 receptors were used with the cells brought to life from a frozen stock immediately before assay performance. 2000 cells per well were applied for all four NPY receptor subtype assays. A 384-well format was used applying a total volume of 20 μl using 5 μl cells, 2.5 μl peptide agonist, 2.5 μl forskolin and 5 μl of each of the fluorophores. […] Concentration-response evaluation of compounds was performed with 11 concentrations of agonist peptides (covering 3 decades). EC50 values were calculated by nonlinear regression using sigmoid concentration-response with variable slope.

human NPY4 receptor = target: T2, human NPY4 receptor (Homo sapiens, UniProt P50391); assay: HTRF cAMP Gi assay, hY4R; format: cell-based; conditions: Table 4; CHO-K1 cells
T2 construct: expressed in transfected cells; host or cells: CHO-K1
T2 sequence (P50391 whole entry): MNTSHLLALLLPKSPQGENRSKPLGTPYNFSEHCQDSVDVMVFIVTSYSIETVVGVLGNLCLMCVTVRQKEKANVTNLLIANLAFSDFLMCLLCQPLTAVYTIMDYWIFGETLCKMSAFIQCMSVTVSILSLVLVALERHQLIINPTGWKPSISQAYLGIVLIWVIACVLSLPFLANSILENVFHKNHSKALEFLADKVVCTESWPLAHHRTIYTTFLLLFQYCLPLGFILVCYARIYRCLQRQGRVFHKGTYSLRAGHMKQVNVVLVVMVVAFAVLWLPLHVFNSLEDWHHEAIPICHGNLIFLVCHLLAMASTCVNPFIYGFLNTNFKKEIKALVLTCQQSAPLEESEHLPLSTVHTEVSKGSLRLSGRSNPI
Excerpt: (§1) The Homogenous Time Resolved fluorescence (HTRF) technology optimized for Gi coupled receptors has thoroughly been described in Cisbio cAMP Gi kit manual. Briefly, the production of intracellular cAMP will generate a competition between unlabeled cAMP and exogenously added d2-cAMP for anti-cAMP antibodies conjugated to cryptate. CHO-K1 cells stably expressing the human NPY1, NPY2, NPY4 and NPY5 receptors were used with the cells brought to life from a frozen stock immediately before assay performance. 2000 cells per well were applied for all four NPY receptor subtype assays. A 384-well format was used applying a total volume of 20 μl using 5 μl cells, 2.5 μl peptide agonist, 2.5 μl forskolin and 5 μl of each of the fluorophores. […] Concentration-response evaluation of compounds was performed with 11 concentrations of agonist peptides (covering 3 decades). EC50 values were calculated by nonlinear regression using sigmoid concentration-response with variable slope.

[1] = target: T3, Human Neuropeptide Y2 Receptor (Homo sapiens, UniProt P49146); assay: Activity (RLB) after incubation in solutions at different pH values; format: binding; conditions: apparent Ki of filtrate after 2 h in buffer
T3 construct: purchased CHEMICON HTS066M
T3 sequence (P49146 1-381): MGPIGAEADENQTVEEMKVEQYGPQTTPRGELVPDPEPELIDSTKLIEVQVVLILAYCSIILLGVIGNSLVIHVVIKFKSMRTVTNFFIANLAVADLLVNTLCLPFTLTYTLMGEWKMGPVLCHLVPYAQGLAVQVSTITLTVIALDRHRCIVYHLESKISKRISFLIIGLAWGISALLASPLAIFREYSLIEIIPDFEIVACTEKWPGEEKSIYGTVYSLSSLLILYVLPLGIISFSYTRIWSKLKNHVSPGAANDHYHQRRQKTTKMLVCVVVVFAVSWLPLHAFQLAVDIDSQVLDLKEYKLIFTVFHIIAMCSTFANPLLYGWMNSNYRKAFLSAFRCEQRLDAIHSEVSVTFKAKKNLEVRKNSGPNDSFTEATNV
Method: The filtration RLB assay was carried out in 96-well plates in a final volume of 100 μl per well. Freeze-dried test peptides were dissolved in 100% dimethyl sulfoxide (DMSO) to stock solutions of 1 mM and serial dilutions were performed in assay buffer (50 mM HEPES, 5 mM MgCl2, 1 mM CaCl2), pH 7.4) containing 0.2% ovalbumin. […] Next, 80 μL membranes (HTS066M, ChemiSCREEN™ Human Neuropeptide Y2 Receptor Membrane Preparation, CHEMICON) were added to each well to give a final protein concentration of 0.5 μg/well. The plates were sealed and incubated at room temperature for 2 hours in a plate shaker set at 400 rpm. The incubation was stopped by vacuum filtration onto 0.5% poly-ethylene amine (PEI) presoaked GF/C filters using a 96-well FilterMate™ harvester (Perkin Elmer) followed by four washes with 300 μl/well ice-cold wash buffer (50 mM HEPES, 500 mM NaCl, pH7.4). Filter plates were then dried for 60 min at room temperature and the bottom of the plates was sealed with backing tape UniFilter-96. Finally, 50 μl/well scintillation counter cocktail (Microscint20, Packard) was added and the radioactivity was counted in the Packard TopCount NXT scintillation counter. IC50 values (the half maximal inhibitory concentration of the agonist) were calculated by nonlinear regression analysis of sigmoidal dose-response curves.
Peptides (as TFA salts) were weighed out in a filter unit (Mini-UniPrep Syringeless Filter 0.45 μm, Whatman), and 0.1 M sodium diphosphate buffer at pH 6.4 or 7.4, respectively, or 0.2 M TRIS buffer at pH 8.3 was added to achieve 10 mg/ml final concentration. The peptide was (partially) dissolved by shaking the filter unit horizontally at approx. 400 rpm for 2 hours at room temperature. The sample was filtered to remove any insoluble particles.

human NPY5 receptor = target: T4, human NPY5 receptor (Homo sapiens, UniProt Q15761); assay: HTRF cAMP Gi assay, hY5R
T4 sequence (Q15761 1-445): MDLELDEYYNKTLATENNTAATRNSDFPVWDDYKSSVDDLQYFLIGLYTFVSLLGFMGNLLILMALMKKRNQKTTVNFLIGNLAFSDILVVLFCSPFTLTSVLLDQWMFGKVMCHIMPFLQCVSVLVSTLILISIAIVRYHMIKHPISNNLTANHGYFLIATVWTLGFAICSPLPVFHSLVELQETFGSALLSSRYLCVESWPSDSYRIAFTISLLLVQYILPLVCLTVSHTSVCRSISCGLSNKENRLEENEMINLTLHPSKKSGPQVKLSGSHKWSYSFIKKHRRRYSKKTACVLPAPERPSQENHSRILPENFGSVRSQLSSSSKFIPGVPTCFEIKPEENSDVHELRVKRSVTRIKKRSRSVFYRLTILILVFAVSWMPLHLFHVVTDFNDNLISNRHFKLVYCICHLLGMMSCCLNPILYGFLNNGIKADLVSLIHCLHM
Excerpt: as §1

[2] = target: T3, Human Neuropeptide Y2 Receptor; assay: Radioligand binding competition assay (RLB)
Summary of the method: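 IC50 values come from nonlinear regression of sigmoidal dose-response curves of filter-bound radioactivity. Peptides competed with radioligand at human Y2 receptor membranes (0.5 μg protein/well) for 2 h at room temperature in pH 7.4 HEPES buffer containing Mg2+, Ca2+ and 0.2% ovalbumin.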

human NPY2 receptor = target: T5, human NPY2 receptor (Homo sapiens, UniProt P49146); assay: HTRF cAMP Gi assay, hY2R
T5 sequence (P49146 1-381): T3 sequence (P49146 1-381)

[3] = pH6.1-6.2, assumed 10 mg/ml, read-out: RLB 6 (pH6.1-6.2)
[4] = Table 3, human 125I-PYY (1-36) 0.02 nM, Y2 receptor membranes, read-out: Ki

| EC50 (human NPY1 receptor) [nM] | EC50 (human NPY4 receptor) [nM] | Ki [1, 3] [nM] | EC50 (human NPY5 receptor) [nM] | Ki [2, 4] [nM] | Ki ([2]; Table 8, from DMSO stock, read-out: hY2R RLB Ki (nM) DMSO) [nM] | Ki ([1]; pH7.1-7.2, assumed 10 mg/ml, read-out: RLB 7 (pH7.1-7.2)) [nM] | EC50 (human NPY2 receptor) [nM] | SMILES |
| --- | --- | --- | --- | --- | --- | --- | --- | --- |
| > 5000 | > 5000 | 3 | > 5000 |  |  |  |  | CC[C@H](C)[C@H](NC(=O)[C@H](CCC(=O)O)NC(=O)[C@H](CCC(=O)O)NC(=O)[C@@H]1CCCN1C(=O)[C@@H](NC(=O)[C@H](C)NC(=O)[C@H](CC(=O)O)NC(=O)[C@H](CCC(=O)O)NC(=O)[C@H](CCC(=O)O)NC(=O)[C@@H]1CCCN1C(=O)[C@H](CCCCNC(=O)COCCOCCNC(=O)COCCOCCNC(=O)CC[C@H](NC(=O)CCCCCCCCCCCCCCCCC(=O)O)C(=O)O)NC(=O)[C@H](CCC(=O)O)NC(=O)[C@@H]1CCCN1C(=O)[C@H](C)NC(=O)CC(C)C)[C@@H](C)O)C(=O)N[C@@H](CCC(N)=O)C(=O)N[C@@H](CCCNC(=N)N)C(=O)N[C@@H](Cc1ccc(O)cc1)C(=O)N[C@@H](Cc1ccc(O)cc1)C(=O)N[C@H](C(=O)N[C@@H](CO)C(=O)N[C@@H](CC(C)C)C(=O)N[C@@H](CCCNC(=N)N)C(=O)N[C@@H](Cc1c[nH]cn1)C(=O)N[C@@H](Cc1ccc(O)cc1)C(=O)N[C@@H](Cc1ccc(O)cc1)C(=O)N[C@@H](CC(N)=O)C(=O)N[C@@H](Cc1c[nH]c2ccccc12)C(=O)N[C@@H](CC(C)C)C(=O)N[C@H](C(=O)N[C@@H](CCCNC(=N)N)C(=O)N[C@@H](CCC(N)=O)C(=O)N[C@@H](CCCNC(=N)N)C(=O)N[C@@H](Cc1ccc(O)cc1)C(N)=O)[C@@H](C)O)C(C)C [Compound 171, N{alpha-4}-(3-methylbutanoyl)-N{epsilon-7}-[2-(2-{2-[2-(2-{2-[(4S)-4-carboxy-4-(17-carboxyheptadecanamido)butanamido]ethoxy}ethoxy)acetamido]ethoxy}ethoxy)acetamido]-[4A,7K,9E,13T,17I,18Q,22V,28Y,30W,31L]hPYY (4-36)] |
|  |  | 4.6 |  | 0.75 | 3 | 11.1 |  | CC(C)CC(=O)N[C@@H](C)C(=O)N1CCC[C@H]1C(=O)N[C@@H](C)C(=O)N[C@@H](CCCCNC(=O)COCCOCCNC(=O)COCCOCCNC(=O)CC[C@H](NC(=O)CCCCCCCCCCCCCCCCC(=O)O)C(=O)O)C(=O)N1CCC[C@H]1C(=O)N[C@@H](CCC(=O)O)C(=O)N[C@@H](CCC(=O)O)C(=O)N[C@@H](CC(=O)O)C(=O)N[C@@H](C)C(=O)N[C@@H](CO)C(=O)N1CCC[C@H]1C(=O)N[C@@H](CCC(=O)O)C(=O)N[C@@H](CCC(=O)O)C(=O)N[C@@H](CC(C)C)C(=O)N[C@@H](CCC(N)=O)C(=O)N[C@@H](CCCNC(=N)N)C(=O)N[C@@H](Cc1ccc(O)cc1)C(=O)N[C@@H](Cc1ccc(O)cc1)C(=O)N[C@H](C(=O)N[C@@H](CO)C(=O)N[C@@H](CC(C)C)C(=O)N[C@@H](CCCNC(=N)N)C(=O)N[C@@H](Cc1c[nH]cn1)C(=O)N[C@@H](Cc1ccc(O)cc1)C(=O)N[C@@H](Cc1ccc(O)cc1)C(=O)N[C@@H](CC(N)=O)C(=O)N[C@@H](Cc1c[nH]c2ccccc12)C(=O)N[C@@H](CC(C)C)C(=O)N[C@H](C(=O)N[C@@H](CCCNC(=N)N)C(=O)N[C@@H](CCC(N)=O)C(=O)N[C@@H](CCCNC(=N)N)C(=O)N[C@@H](Cc1ccc(O)cc1)C(N)=O)[C@@H](C)O)C(C)C [Compound 203, N{alpha-4}-(3-methylbutanoyl)-N{epsilon-7}-[2-(2-{2-[2-(2-{2-[(4S)-4-carboxy-4-(17-carboxyheptadecanamido)butanamido]ethoxy}ethoxy)acetamido]ethoxy}ethoxy)acetamido]-[4A,6A,7K,9E,18Q,22V,28Y,30W,31L]hPYY (4-36)] |
| > 5000 | > 5000 |  | > 5000 | 1.96 |  |  | 0.107 | CC(C)CC(=O)N[C@@H](C)C(=O)N1CCC[C@H]1C(=O)N[C@@H](CCC(=O)O)C(=O)N[C@@H](CCCCNC(=O)COCCOCCNC(=O)COCCOCCNC(=O)CC[C@H](NC(=O)CCCCCCCCCCCCCCCCC(=O)O)C(=O)O)C(=O)N1CCC[C@H]1C(=O)N[C@@H](CCC(=O)O)C(=O)N[C@@H](CCC(=O)O)C(=O)N[C@@H](CC(=O)O)C(=O)N[C@@H](C)C(=O)N[C@H](C(=O)N1CCC[C@H]1C(=O)N[C@@H](CCC(=O)O)C(=O)N[C@@H](CCC(=O)O)C(=O)N[C@@H](CC(C)C)C(=O)N[C@@H](CCC(N)=O)C(=O)N[C@@H](CCCCN)C(=O)N[C@@H](Cc1ccc(O)cc1)C(=O)N[C@@H](Cc1ccc(O)cc1)C(=O)N[C@H](C(=O)N[C@@H](CO)C(=O)N[C@@H](CC(C)C)C(=O)N[C@@H](CCCNC(=N)N)C(=O)N[C@@H](Cc1c[nH]cn1)C(=O)N[C@@H](Cc1ccc(O)cc1)C(=O)N[C@@H](Cc1ccc(O)cc1)C(=O)N[C@@H](CC(N)=O)C(=O)N[C@@H](Cc1c[nH]c2ccccc12)C(=O)N[C@@H](CC(C)C)C(=O)N[C@H](C(=O)N[C@@H](CCCNC(=N)N)C(=O)N[C@@H](CCC(N)=O)C(=O)N[C@@H](CCCNC(=N)N)C(=O)N[C@@H](Cc1ccc(O)cc1)C(N)=O)[C@@H](C)O)C(C)C)[C@@H](C)O [Compound 231, N{alpha-4}-(3-methylbutanoyl)-N{epsilon-7}-[2-(2-{2-[2-(2-{2-[(4S)-4-carboxy-4-(17-carboxyheptadecanamido)butanamido]ethoxy}ethoxy)acetamido]ethoxy}ethoxy)acetamido]-[4A,7K,9E,13T,18Q,19K,22V,28Y,30W,31L]hPYY (4-36)] |
